For eleven compounds, IC50 and GI50 results are on record in US20140051679A1, “KINASE INHIBITORS AND METHOD OF TREATING CANCER WITH SAME” (UNIVERISTY HEALTH NETWORKS, priority 2011, published 2014).

The target of one test is T1, human TTK (Homo sapiens, UniProt P33981).
T1 construct: amino terminal GST fusion of full length human TTK; purchased Invitrogen
T1 sequence (P33981 1-857): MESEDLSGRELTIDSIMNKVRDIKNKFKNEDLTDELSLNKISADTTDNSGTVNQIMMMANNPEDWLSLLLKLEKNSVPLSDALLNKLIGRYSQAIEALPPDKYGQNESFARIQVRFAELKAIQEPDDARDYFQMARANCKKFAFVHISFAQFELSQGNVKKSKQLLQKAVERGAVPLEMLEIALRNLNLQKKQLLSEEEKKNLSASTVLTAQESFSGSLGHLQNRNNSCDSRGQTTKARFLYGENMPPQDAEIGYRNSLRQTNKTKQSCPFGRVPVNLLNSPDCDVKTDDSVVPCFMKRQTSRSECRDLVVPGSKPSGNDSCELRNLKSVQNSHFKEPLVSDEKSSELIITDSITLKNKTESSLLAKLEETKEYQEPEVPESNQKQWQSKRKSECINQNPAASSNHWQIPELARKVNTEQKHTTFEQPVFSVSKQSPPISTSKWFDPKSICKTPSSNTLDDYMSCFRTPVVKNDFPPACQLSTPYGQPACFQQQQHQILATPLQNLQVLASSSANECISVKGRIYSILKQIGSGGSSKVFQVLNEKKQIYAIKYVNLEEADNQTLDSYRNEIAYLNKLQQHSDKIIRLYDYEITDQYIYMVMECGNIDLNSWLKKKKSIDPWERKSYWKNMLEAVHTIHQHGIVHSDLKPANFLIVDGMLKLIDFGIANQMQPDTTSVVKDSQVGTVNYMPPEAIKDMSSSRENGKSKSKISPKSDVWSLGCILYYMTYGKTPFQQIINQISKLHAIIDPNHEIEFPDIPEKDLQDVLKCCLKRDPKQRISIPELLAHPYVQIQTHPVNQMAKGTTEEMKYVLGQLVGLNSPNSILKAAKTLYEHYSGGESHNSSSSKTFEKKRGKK
Kind of test: TTK inhibition assay (indirect ELISA). Particulars: GST-TTK 0.68 nM, 16 μM ATP; read-out: IC50 Ranges TTK. Type of test: biochemical. In general terms: An ELISA detects its analyte on a solid surface through an enzyme-linked reagent.

The target of a further test is T2, human PLK4 (Homo sapiens, UniProt O00444).
T2 construct: amino terminal GST fusion of residues 1-391 of human PLK4; made in house; host or cells: E. coli
T2 sequence (O00444 1-391): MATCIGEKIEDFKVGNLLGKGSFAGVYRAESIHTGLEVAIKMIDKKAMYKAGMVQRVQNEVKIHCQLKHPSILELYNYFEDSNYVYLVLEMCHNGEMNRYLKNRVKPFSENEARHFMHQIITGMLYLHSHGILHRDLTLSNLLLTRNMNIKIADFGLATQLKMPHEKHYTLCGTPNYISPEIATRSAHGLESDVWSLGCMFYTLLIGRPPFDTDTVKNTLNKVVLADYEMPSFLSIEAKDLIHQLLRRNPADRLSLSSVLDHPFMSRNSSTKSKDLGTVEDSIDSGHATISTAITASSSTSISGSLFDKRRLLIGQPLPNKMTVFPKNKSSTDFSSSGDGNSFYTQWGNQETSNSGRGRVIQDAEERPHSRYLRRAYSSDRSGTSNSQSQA
As to the kind of experiment: PLK4 inhibition assay (indirect ELISA). It counts as biochemical. The note with it: GST-PLK4 4 nM, 15 μM ATP; read-out: IC50 Ranges PLK4. A digest of the protocol:
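Compounds were tested either at a single 10 μM dose or across 10-point titrations (typically 0.5 to 0.001 μM), preincubated 15 min with 4 nM GST-PLK4 (human 1-391, dephosphorylated) before 15 μM ATP was added. MBP substrate phosphorylation over 30 min, pH 7.5 HEPES/MgCl2 buffer, read by HRP/TMB ELISA (450 nm). % inhibition vs. high-activity control; IC50 by logistic fit.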

Test [1] concerns MDA-MB-231 breast cancer cells. As to the kind of experiment: Cell growth inhibition, Sulforhodamine B assay, MDA-MB-231. It counts as cell-based. The note with it: Homo sapiens, 120 h, 5 days culture, SRB assay, read-out: Cell Line GI50 Range MDA-MB-231.
The subject of test [2] is MDA-MB-468 breast cancer cells. As to the kind of experiment: Cell growth inhibition, Sulforhodamine B assay, MDA-MB-468. Type of test: cell-based. The note with it: Homo sapiens, 120 h, 5 days culture, SRB assay, read-out: Cell Line GI50 Range MDA-MB-468. On the technique in general: The SRB assay estimates cell density from bound dye.
Test [3] concerns HCT116 colon cancer cells. As to the kind of experiment: Cell growth inhibition, Sulforhodamine B assay, HCT116. Type of test: cell-based. Particulars: Homo sapiens, HCT-116, 120 h, 5 days culture, SRB assay, read-out: Cell Line GI50 Range HCT116.
The next test has as its system HT29 colon cancer cells. As to the kind of experiment: Cell growth inhibition, Sulforhodamine B assay, HT29. It counts as cell-based. The note with it: Homo sapiens, HT-29, 120 h, 5 days culture, SRB assay, read-out: Cell Line GI50 Range HT29.
For test [4], the system named is PA-1 ovarian cancer cells. As to the kind of experiment: Cell growth inhibition, Sulforhodamine B assay, PA-1. It counts as cell-based. The note with it: 120 h, 5 days culture, SRB assay, read-out: Cell Line GI50 Range PA-1.
Test [5] deals with OVCAR-3 ovarian cancer cells. As to the kind of experiment: Cell growth inhibition, Sulforhodamine B assay, OVCAR-3. Type of test: cell-based. Particulars: Homo sapiens, 120 h, 5 days culture, SRB assay, read-out: Cell Line GI50 Range OVCAR-3.
The target in a further test is T3, Aurora B (Homo sapiens, UniProt Q96GD4).
T3 construct: purchased Invitrogen PV3970
Kind of test: Aurora B inhibition assay (Z-Lyte). Type of test: biochemical. The note with it: 28 nM Aurora B, 128 μM ATP; read-out: IC50 Ranges Aurora B. The method, then:
Aurora B inhibition was determined using the Z-Lyte assay kit from Invitrogen. The assay was performed using the recommended manufacturer's instructions with 128 μM ATP and 28 nM Aurora B (Invitrogen cat #PV3970). The % inhibition values were determined according to the manufacturer's directions and IC50 values were obtained using a non-linear 4 point logistic curve fit (XLfit4, IDBS)

T3 sequence (Q96GD4 whole entry): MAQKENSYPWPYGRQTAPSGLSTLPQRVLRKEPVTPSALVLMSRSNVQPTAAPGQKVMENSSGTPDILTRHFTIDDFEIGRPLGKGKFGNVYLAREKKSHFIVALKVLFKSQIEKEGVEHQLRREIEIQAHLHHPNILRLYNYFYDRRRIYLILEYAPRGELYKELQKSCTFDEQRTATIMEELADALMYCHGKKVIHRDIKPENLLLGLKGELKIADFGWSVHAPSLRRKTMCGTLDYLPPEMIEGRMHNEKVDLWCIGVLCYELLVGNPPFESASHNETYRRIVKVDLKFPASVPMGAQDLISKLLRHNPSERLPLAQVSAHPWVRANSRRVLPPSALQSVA
Experimental for HT29 colon cancer cells: Breast cancer cells (MDA-MB-231, MDA-MB-468), colon cancer cells (HCT116, HT29) and ovarian cancer cells (PA-1, OVCAR-3) were seeded (1000 to 4000 in 80 μl per well depending on the cell growth rate) into 96 well plates 24 hours before compound overlay. Compounds were prepared as 10 mM stock solutions in 100% DMSO which were diluted with DMEM (Dulbecco's Modified Eagle's Medium) cell growth Medium (Invitrogen, Burlington, ON, Canada) containing 10% FBS (Fetal Bovine Serum) to concentrations ranging from 50 nM to 250 μM. Aliquots (20 μl) from each concentration were overlaid to 80 μl of the pre-seeded cells in the 96 well plates to make final concentrations of 10 nM to 50 μM. The cells were cultured for 5 days before the Sulforhodamine B assay (SRB) was performed to determine the compound's cell growth inhibition activity.
Sulforhodamine B (purchased from Sigma, Oakville, ON, Canada) is a water-soluble dye that binds to the basic amino acids of the cellular proteins. Thus, colorimetric measurement of the bound dye provides an estimate of the total protein mass that is related to the cell number. the cells are fixed in situ by gently aspirating off the culture media and adding 50 μl ice cold 10% Trichloroacetic Acid (TCA) per well and incubate at 4° C. for 30-60 min, The plates are washed with water five times and allowed to air dry for 5 min. Addition of 50 μl 0.4% (w/v) SRB solution in 1% (v/v) acetic acid to each well and incubatation for 30 min at RT completes the staining reaction. Following staining, plates are washed four times with 1% acetic acid to remove unbound dye and then allowed to air dry for 5 min. The stain is solubilized with 100 μl of 10 mM Tris pH 10.5 per well. Absorbance is read at 570 nm.
The percentage (%) of relative growth inhibition was calculated by comparing to DMSO treated only cells (100%). […] The GI50 was calculated using GraphPad PRISM software (GraphPad Software, Inc., San Diego, Calif., USA).

For the compound `COCCN1CCC(Oc2ccc(-c3n[nH]c4ccc(C(=O)N[C@H](C)c5ccccc5F)cc34)cc2)CC1` [Example A129, (R)—N-(1-(2-fluorophenyl)ethyl)-3-(4-((1-(2-methoxyethyl)piperidin-4-yl)oxy)phenyl)-1H-indazole-5-carboxamide], the 50% inhibitory concentration (IC50) on human TTK and at human PLK4 was ≤ 5 µM in each case. The concentration for 50% growth inhibition (GI50) is ≤ 5 µM in test [1]; ≤ 5 µM in [2]; ≤ 5 µM in test [3]; ≤ 5 µM with HT29 colon cancer cells; ≤ 5 µM in test [4]; 5 to 20 µM in test [5].

On to `CN1CCC(Oc2ccc(-c3n[nH]c4ccc(C(=O)N[C@H](CCO)c5ccccc5)cc34)cc2Cl)CC1` [Example A202, (R)-3-(3-chloro-4-((1-methylpiperidin-4-yl)oxy)phenyl)-N-(3-hydroxy-1-phenylpropyl)-1H-indazole-5-carboxamide], for which the half-inhibitory concentration (IC50) at human TTK, at human PLK4 and on Aurora B was ≤ 5 µM in each case. For the same compound, the 50% growth inhibitory concentration (GI50) in test [1], in [2], in [3], in [4] and in [5] was ≤ 5 µM in each case.

For the compound `CN1CCC(Oc2ccc(-c3n[nH]c4ccc(C(=O)NC(c5ccccn5)C5CC5)cc34)cc2Cl)CC1` (stereo not shown) [Example A198, 3-(3-chloro-4-((1-methylpiperidin-4-yl)oxy)phenyl)-N-(cyclopropyl(pyridin-2-yl)methyl)-1H-indazole-5-carboxamide], the IC50 at human TTK, at human PLK4 and on Aurora B was ≤ 5 µM each time. The GI50 in test [1], in [2], in test [3], in test [4] and in [5] was ≤ 5 µM throughout.

As to `O=C(NC(c1ccccc1)C1CC1)c1ccc2[nH]nc(-c3ccc(OCCN4CCOCC4)cc3)c2c1` (stereo not shown) [Example A140, N-(cyclopropyl(phenyl)methyl)-3-(4-(2-morpholinoethoxy)phenyl)-1H-indazole-5-carboxamide], the 50% inhibitory concentration (IC50) at human TTK and at human PLK4 was ≤ 5 µM each time. Further, the GI50 (in [1]; in test [2]; in [3]; in the test with HT29 colon cancer cells; in test [4]; in test [5]) was ≤ 5 µM each time.

`CCc1cccc(CC)c1NC(=O)Nc1ccc2[nH]nc(-c3ccc4c(c3)CN(C)CCO4)c2c1` [Example A114, 1-(2,6-diethylphenyl)-3-(3-(4-methyl-2,3,4,5-tetrahydrobenzo[f][1,4]oxazepin-7-yl)-1H-indazol-5-yl)urea]: the IC50 at human TTK and at human PLK4 was ≤ 5 µM in each case. Besides, the concentration for 50% growth inhibition (GI50) was ≤ 5 µM in [1]; ≤ 5 µM in test [2]; ≤ 5 µM in [3]; ≤ 5 µM in the test with HT29 colon cancer cells; ≤ 5 µM in test [4]; 5 to 20 µM in test [5].

Consider `CN1CCC(Oc2ccc(-c3n[nH]c4ccc(NC(=O)C(c5ccccc5F)C5CCCC5)cc34)cc2)CC1` (stereo not shown) [Example A162, 2-cyclopentyl-2-(2-fluorophenyl)-N-(3-(4-((1-methylpiperidin-4-yl)oxy)phenyl)-1H-indazol-5-yl)acetamide], for which the half-maximal inhibitory concentration (IC50) at human TTK and at human PLK4 was ≤ 5 µM in each case. Also, the GI50 (in [1]; in [2]; in test [3]; in the test with HT29 colon cancer cells; in test [4]; in test [5]) was ≤ 5 µM in each case.

Take `CN1CCC(Oc2ccc(-c3n[nH]c4ccc(NC(=O)C5OCCc6ccccc65)cc34)cc2)CC1` (stereo not shown) [Example A146, N-(3-(4-(1-Methylpiperidin-4-yloxy)phenyl)-1H-indazol-5-yl)isochroman-1-carboxamide]: the half-inhibitory concentration (IC50) on human TTK and on human PLK4 was ≤ 5 µM throughout. In addition, the GI50 (in [1]; in [2]; in [3]; in the test with HT29 colon cancer cells; in [4]; in test [5]) was ≤ 5 µM throughout.

`CN1CCC(Oc2ccc(-c3n[nH]c4ccc(C(=O)NC(c5ccccc5Cl)C5CCCC5)cc34)cc2)CC1` (stereo not shown) [Example A199, N-((2-chlorophenyl)(cyclopentyl)methyl)-3-(4-((1-methylpiperidin-4-yl)oxy)phenyl)-1H-indazole-5-carboxamide]: the half-inhibitory concentration (IC50) on human TTK, at human PLK4 and at Aurora B was ≤ 5 µM each time. Moreover, the GI50 in test [1], in test [2], in test [3], in [4] and in test [5] was ≤ 5 µM throughout.

As to `CO[C@@H](C(=O)Nc1ccc2[nH]nc(-c3ccc(OCC4CCN(C)CC4)cc3)c2c1)c1ccccc1` [Example A145, (R)-2-methoxy-N-(3-(4-((1-methylpiperidin-4-yl)methoxy)phenyl)-1H-indazol-5-yl)-2-phenylacetamide], the IC50 on human TTK and on human PLK4 was ≤ 5 µM throughout. Further, the GI50 (in test [1]; in [2]; in test [3]; in the test on HT29 colon cancer cells; in test [4]; in test [5]) was ≤ 5 µM each time.

As to `CN1CCC(Oc2ccc(-c3n[nH]c4ccc(C(=O)NCc5ccccc5CO)cc34)cc2)CC1` [Example A142, N-(2-(hydroxymethyl)benzyl)-3-(4-((1-methylpiperidin-4-yl)oxy)phenyl)-1H-indazole-5-carboxamide], the half-maximal inhibitory concentration (IC50) on human TTK and on human PLK4 was ≤ 5 µM throughout. Moreover, the GI50 is ≤ 5 µM in [1]; ≤ 5 µM in test [2]; ≤ 5 µM in test [3]; ≤ 5 µM in the test with HT29 colon cancer cells; ≤ 5 µM in test [4]; 5 to 20 µM in [5].

For the compound `CC(C)(C)OC(=O)N1CCC(Oc2ccc(-c3n[nH]c4ccc(NC(=O)C(c5ccsc5)N5CCCC5)cc34)cc2)CC1` (stereo not shown) [Example A115, tert-butyl 4-(4-(5-(2-(pyrrolidin-1-yl)-2-(thiophen-3-yl)acetamido)-1H-indazol-3-yl)phenoxy)piperidine-1-carboxylate], the IC50 at human TTK and on human PLK4 was ≤ 5 µM each time. Besides, the GI50 (in [1]; in test [2]; in test [3]; in the test with HT29 colon cancer cells; in [4]; in [5]) was ≤ 5 µM in each case.

A word on the IC50: it is the concentration that inhibits the measured activity by half. As a reminder, the GI50 is the concentration that inhibits growth by half.
